Reference: patent US20190307713A1, “COMBINATIONS OF DICLOFENAC AND H2 RECEPTOR ANTAGONISTS FOR THE TREATMENT OF PAIN AND INFLAMMATION” (priority 2016, published 2019)

Tests used:
[1] = oral, instant or immediate release formulations; cited from earlier work
in vivo = conditions: male, Wistar, rat, po
Protocol: Male Wistar rats (240-260 g) were maintained in an air conditioned quarters at a temperature of 22±2° C. and a relative humidity of 50±10%. Food and water were allowed ad libitum. The animals were acclimatized to the facilities for five days, and then fasted with free access to water for 12 h prior to the experiment. All these animals were housed under similar conditions.
Blood (0.2 ml) was taken from the tail vein prior to administration of test substances (0 h) and blood was taken after 0.083, 0.167, 0.25, 0.5, 1, 2, 4, 8 and 12 h respectively.
Blood samples were collected in tubes containing %5 Nat-EDTA and kept on ice until dichloromethane was added and they were centrifuged at 7000×g for 5 min at 4° C. and supernatants were collected for HPLC analysis.

[2] = system: Caco-2 intestinal permeability model; experiment: Caco-2 permeability study of diclofenac potassium and famotidine separately and in combination; type: in vitro ADME; conditions: Caco-2, 50 μg/ml diclofenac potassium (20 μg/ml famotidine in combination)
Protocol: The permeability study designed using Caco-2 intestinal permeability model was prepared by using Millipore 96 well insert plate as 10,000 cells/well on Feb. 21, 2017 and placed in an incubator. Tests on integrity, viability and permeability were performed on Mar. 15, 2017. Viability results were obtained by MTT and integrity results were obtained using Lucifer yellow and the plate was determined to be eligible for permeability study. […] Methanol was used as solvent for the samples and the samples were analyzed in LC/MSMS 8040 analyzer using mobile phase, Methanol+bidistillated water+Ammonium formate.

| Compound | Tmax (time to the maximum plasma concentration) [1] | Cmax (in vivo) [ng/mL] | Tmax (in vivo) [min] | Permeability percentage of Diclofenac potassium ([2]; 1 hour) [%] | Permeability percentage of Diclofenac potassium ([2]; 1.5 hours) [%] | Permeability percentage of Diclofenac potassium ([2]; 2 hours) [%] | Permeability percentage of Diclofenac potassium ([2]; 4 hours) [%] | Permeability percentage of Diclofenac potassium ([2]; 8 hours) [%] |
| --- | --- | --- | --- | --- | --- | --- | --- | --- |
| O=C(O)Cc1ccccc1Nc1c(Cl)cccc1Cl [diclofenac, 2-[2-(2,6-dichloroanilino)phenyl]acetic acid] | about 1 hour | – | – | – | – | – | – | – |
| O=C(O)Cc1ccccc1Nc1c(Cl)cccc1Cl [Diclofenac potassium, 2-[2-(2,6-dichloroanilino)phenyl]acetic acid] | – | 1.24 | 15 | 76.93 | 80.76 | 81.80 | 82.22 | 86.32 |
